Data on twelve compounds can be found in patent US20030216569A1, “Method of making HIV protease inhibitors” (priority 1993, published 2003).

Values joined by “and” are separate entries in the source; they are usually repeats but may differ in a detail not shown here. Equal values may be shown once. Read-outs that look alike come from different tables or passages of the source.

One data set has as its target HIV-1 protease (Human immunodeficiency virus type 1 group M subtype B, UniProt P04585). The data set can be described thus: Fluorescence HIV-1 Protease Inhibitor Assay (Pandex). The data set is classed as biochemical. Further details: made in house; host or cells: E. coli K12 L507/pHP10D (NRRL B-18560).
Data set [1] relates to HIV-1 isolates IIIB and/or RF in MT-2 cells. The data set can be described thus: SRI primary anti-HIV screen, MTT assay of inhibition of HIV-induced cell killing in MT2 cells. The data set is classed as cell-based. The following applies: MT2 cells. From the text: I. Primary Drug Screening of Anti-HIV Compounds at Southern Research Institute (SRI) (Results recorded in Table 1 are designated “SRI CEM (ng/ml)” or “SRI MT2 (ng/ml)”)
(§1) A. Principle of MTT Assay:
(§2) SRI has an established program for the primary antiviral analysis of compounds in microtiter assays which measures the ability of a selected compound to inhibit HIV-induced cell killing. This assay involves the conversion of the tetrazolium dye MTT to a colored formazan product by mitochondrial enzymes in metabolically active cells. This assay system is used at SRI to screen over 30,000 compounds per year. Briefly, the assay involves the infection of CEM or MT2 cells in round bottom 96-well plates. The compound of interest is added just prior to infection. Following 6 days of incubation at 37° C. the plates are stained with MTT. The results of the assay are quantitated spectrophotometrically on a Molecular Devices Vmax plate reader. The data are analyzed by linear regression utilizing an in-house software program to calculate antiviral activity (IC25, IC50, IC95) and toxicity (TC25, TC50, TC95) as well as other values.
(§3) Primary antiviral assays are routinely performed in CEM or MT-2 cells.
(§4) B. Standard Screening Assays in CEM and MT-2 Cells
(§5) 1. Compound dilution and delivery to the plates
Drugs are solubilized in the appropriate vehicle such as distilled water or DMSO if necessary. Latex gloves, lab coats and masks are used during all phases of the handling process to prevent exposure to potentially harmful agents. The drug is prepared at the appropriate concentration and stored at −20° C. until used by the screening laboratory. The first dilution of each compound is made in a dilution tube with medium to yield a concentration two-fold that of the highest test concentration. Sterile titer tubes are then used to make serial one half-log dilutions of each compound. Following drug dilution, the diluted compound is added to the appropriate well of a 96-well microtiter plate. […] When testing includes only six dilutions, two drugs can be assayed on a single microtiter plate. The drugs are added to the plate in a final volume of 100 microliters.
(§6) During the time the drug dilutions are prepared, cells are washed and counted. Viability is monitored by trypan blue dye exclusion and assays are not performed if the viability falls below 90%. Cells are maintained in an exponential growth phase and are split 1:2 on the day prior to assay to assure exponential growth rate.
(§7) For the primary screen, the cell lines utilized are CEM and MT-2. Unless otherwise indicated, the medium used is RPMI 1640 with 10% heat-inactivated fetal calf serum (FBS), glutamine and antibiotics.
(§8) Cells are propagated at 37° C. in an atmosphere of 5% CO2 in air. The virus employed for this work is HIV-1 isolates IIIB and/or RF, which are prepared by an acute infection process.
(§9) Briefly, virus-infected cells are pelleted on a daily basis beginning at three days post-infection until the virus has killed all of the cells in the culture. Reverse transcriptase activity and p24 ELISA are used to identify pools with the greatest amout of virus.
(§10) These 24-hour harvests are pooled, filtered and frozen at −90° C. Prior to use in the assay, the infectious pool of virus is titered on all available cell lines in order to determine the amount of virus required in the antiviral assay.
In general, pools produced by the acute infection method require the addition of one microliter of infectious virus per well resulting in the screening of drugs at a multiplicity of infection of 0.01. In this manner, enough virus is prepared and frozen to complete over one thousand microtiter plates, allowing the testing of up to two thousand compounds from a single stock of infectious virus. The use of a single stock of virus for a long period of testing has very favorable effects on the repeatability of the assay systems. […]
(In general: Tetrazolium dyes change colour on reduction, which living cells bring about.)

In data set [2] the test system is Viral SN123 infected CEM cells. The following applies: Human immunodeficiency virus 1, CCRF-CEM, values in parentheses are 35B in same assay.
Method: Purpose: To determine IC50 CC50 for compounds:
Media A [1% DMSO] (100 microliters DMSO+9.9 ml media A)
CEM cells @ [1×10^4] cells/ml (4 plate=40 ml) (6 plate=60 ml)
(need 70 microliters of each)
A-D at [10 mM] in 100% DMSO
4 or 6 u-bottom 96-well plates
4 flat bottom 96-well plates for dilutions
8-10 boxes of sterile costar tips
Approximately 10 reagent trays
1000 cells/well=1×10^4 cells/ml=1000 cells/100 microliters 200 microliters=total volume in a well
Cell Preparation and Plating of Cells, Media A and Media A (1% DMSO)
a. Number a 96-well tissue culture plate for each compound tested, one for a control plate, and one for the control compound.
b. Count cells on hemacytometer and resuspend them in 40 ml or 80 ml of Media A at a concentration of [1×10^4]0 cells/ml.
Counting Cells on a Hemacytomer:
Label two 1.8 ml nuc tubes 1 and 2.
Put 0.5 ml of well mixed CEM cells (in growth phase) in tube 1.
Put 50 micoliters PBS and 40 microliters of trypan blue into tube 2.
Mix up the cells in tube 1 then remove 10 microliters of cells and put them into tube 2.
Mix well in tube 2, then remove 10 microliters of the stained cells and put them on the hemacytometer.
Count the number of cells in the center square of the hemacytometer with the microscope set on 10×.
The concentration of the stock CEM's in cells/ml is as follows:
Cells counted×1×10^5=Concentration of CEM's in [cells/ml].
c. Add 200 microliters Media A to: A1 of places 2-6. These are Blanks. A4-H4 of plate 1. These are Blanks.
d. Add 5 microlicers Media A to all wells of Rows A-D of plates 2-6 except A1 (the top half of each plate).
e. Add 50 microliters of Media A to wells A1-D3 of Plate 1 (the top half of the plate).
f. Add 50 microliters Media A[l% DMSO] to all wells of Columns 1-3 of plate 1.
This puts 1000 cells/well.
h. Put plates in an incubator while doing drug dilutions.
Preparation Control and Test Drugs
(1) Put 60 microliters of DMSO into all wells of Columns 2-12, Rows A-E.
(3) Put 70 microliters of A [10 mM] at 100% DMSO into well B1.
(4) Put 70 microliters of B [10 mM] at 100% DMSO into well C1.
(5) Put 70 microliters of C [10 mM] at 100% DMSO into well D1.
(6) Put 70 microliters of D [10 mM] at 100% DMSO into well E1.
Change tips before each dilution.
(1) In rows A-E of another plate make a row for the first 1:10 dilution to correspond to each compound's 100% DMSO row.
A into Row B for the first 1:10 dilution.
B into Row C for the first 1:10 dilution.
C into Row D for the first 1:10 dilution.
D into Row E for the first 1:10 dilution.
(2) Put 180 microliters of media A into all wells of rows A-E corresponding to the 100% DMSO rows. 2.5 ml needed per row.
(3) Remove 20 microliters from all wells of each row of the 100% DMSO rows and transfer it to the corresponding 1:10 row.
(1) Make a plate for every 3 compounds to be tested.
Use 20 ml of media A per plate.
(3) Transfer 25 microliters of each compound from the row in the 1:10 dilution to the corresponding two rows on the 1:100 dilution plate changing tips before each transfer.
Addition of Viral SN123 to Plates
a. Thaw Sn123 in 37° C. water bath for approximately 10 minutes.
b. Dilute Sn123 1:16 by adding 1 ml of Sn123 to 15 ml of media A.
c. Add 50 microliters of Sn123 [1:16] to wells E1-H12 of plates 2-6 and to wells E1-H3 of plate 1.
Addition of Drugs to Plates
a. Add 50 microliters of the control and test drugs from the rows in the 1:100 dilution plates to the appropriate rows in the final plates (changing tips before each transfer). One row in the 1:100 plate will do 4 rows in the final plate. Leave A1 blank.
b. Incubate all plates 7 days at 37° C. 5% CO2.
c. Do Xtt protocol on day 7 as follows:
d. Preparation of Xtt/PMS Solution: (4 plate=20 ml) (6 plate=30 ml)
100 microliters [100 mM] PMS+4.9 ml PBS=PMS at [2 mM]
(2) Heat 500 ml of H2O in microwave for 5 minutes on high.
(3) Put 20 or 30 ml of phenol red RPMI in a 50 ml centrifuge tube.
(4) Put the RPMI in the beaker of hot water.
(5) Add 20 or 30 mg of XTT to the warmed up RPMI.
Data set [3] deals with HIV-1 isolates IIIB and/or RF in CEM cells. The data set can be described thus: SRI primary anti-HIV screen, MTT assay of inhibition of HIV-induced cell killing in CEM cells. The data set is classed as cell-based. The following applies: CEM cells. As for the experimental part: as §1
as §2, with “This” for “SRI has an established program for the primary antiviral analysis of compounds in microtiter assays which measures the ability of a selected compound to inhibit HIV-induced cell killing. This”
as §3, §4, §5
Drugs are solubilized in the appropriate vehicle such as distilled water or DMSO if necessary. Latex gloves, lab coats and masks are used during all phases of the handling process to prevent exposure to potentially harmful agents. The drug is prepared at the appropriate concentration and stored at −20° C. until used by the screening laboratory. The first dilution of each compound is made in a dilution tube with medium to yield a concentration two-fold that of the highest test concentration. Sterile titer tubes are then used to make serial one half-log dilutions of each compound. Following drug dilution, the diluted compound is added to the appropriate well of a 96-well microtiter plate. Up to 12 dilutions can be assayed conveniently in triplicate on a single plate with all appropriate controls including cell control, virus control, toxicity control, drug color control, medium control and plastic (background) control. When testing includes only six dilutions, two drugs can be assayed on a single microtiter plate. The drugs are added to the plate in a final volume of 100 microliters.
as §6, §7, §8, §9, §10
In general, pools produced by the acute infection method require the addition of one microliter of infectious virus per well resulting in the screening of drugs at a multiplicity of infection of 0.01. In this manner, enough virus is prepared and frozen to complete over one thousand microtiter plates, allowing the testing of up to two thousand compounds from a single stock of infectious virus.
Virus infection of the CEM and MT-2 cells for the antiviral assay is carried out in a bulk infection process.

The mark [4] stands for this setting: normalized to positive control (=1.0), * = a calculated average, read-out: Fluorescence Assay IC50 in ng/mL (converted).
Where [5] appears, read: value as run, 35B value of the same run in footnote or parentheses, read-out: Pandex IC50 ng/ml (converted).
Where [6] appears, read: normalized to positive control (=1.0), * = a calculated average.
[7] abbreviates: value as run, 35B value of the same run in footnote or parentheses.

One may read the melting point as the temperature of the solid-liquid transition. What is called IC90 is the concentration at which the effect reaches the 90% level.

The compound `Cc1c(N)cccc1C(=O)NC(CSc1ccc2ccccc2c1)C(O)Cc1ccccc1C(=O)NC(C)(C)C` (stereo not drawn) [Example 42, [2′R-(2′R*,3′S*)]-N-t-Butyl-2-[2′-hydroxy-3′-naphth-2-ylthiomethyl-4′-aza-5′-oxo-5′-(2″-methyl-3″-aminophenyl)pentyl] benzamide] showed a melting point of 105 to 106 °C. In addition, on HIV-1 protease (setting [4]), the IC50 is 191 nM.
The matching figures for `CC(C)(C)NC(=O)c1ccccc1C[C@@H](O)[C@@H](CSc1ccc2ccccc2c1)NC(=O)c1cccc(N)c1Cl` [Example 44, [2′R-(2′R*,3′S*)]-N-t-Butyl-2-[2′-hydroxy-3′-naphth-2-ylthiomethyl-4′-aza-5′-oxo-5′-(2″-chloro-3″-aminophenyl)pentyl] benzamide]: 107 to 108 °C and 121 nM.
The like results for `Cc1c(C(=O)NC(CSc2ccc3ccccc3c2)C(O)Cc2ccccc2C(=O)NC(C)(C)C)ccc(O)c1O` (stereo not drawn) [Example 70, [2′R-(2′R*,3′S*)]-N-t-Butyl-2-[2′-hydroxy-3′-naphth-2-ylthiomethyl-4′-aza-5′-oxo-5′-(2″-methyl-3″,4″-dihydroxyphenyl)pentyl] benzamide] were, in that order, 121 to 123 °C and 183 nM.
For `CC(C)(C)NC(=O)c1ccccc1C[C@@H](O)[C@@H](CSc1ccc2ccccc2c1)NC(=O)c1cccc2c1CCN2` [Example 65, [2′R-(2′R*,3′S*)]-N-t-Butyl-2-[2′-hydroxy-3′-naphth-2-ylthiomethyl-4′-aza-5′-oxo-5′-(indolin-4″-yl)pentyl] benzamide], the melting point lay within 83 to 84 °C. In addition, the IC50 at HIV-1 protease (setting [4]) was 687 nM.
The like results for `CC(C)(C)NC(=O)c1ccccc1C[C@@H](O)[C@@H](CSc1ccc2ccccc2c1)NC(=O)c1ccnc2ccccc12` [Example 66, [2′R-(2′R*,3′S*)]-N-t-Butyl-2-[2′-hydroxy-3′-naphth-2-ylthiomethyl-4′-aza-5′-oxo-5′-(quinolin-4″-yl)pentyl] benzamide] were, in that order, 89 to 92 °C and 474 nM.
In the case of `Cc1c(OP(=O)(O)O)cccc1C(=O)N[C@@H](Cc1ccccc1)[C@H](O)CN1C[C@H]2CCCC[C@H]2C[C@H]1C(=O)NC(C)(C)C` (relative stereo) [Example 78, [3S-(3R*, 4aR*, 8aR*, 2′S*, 3′R*)]-2-[2′-Hydroxy-3′-phenylmethyl-4′-aza-5′-oxo-5′-(2″-methyl-3″-Hydroxyphenyl)pentyl]decahydroisoquinoline-3-N-t-butyl carboxamide 3″-dihydrogen phosphate], the “SRI MT2 IC50” value in data set [1] was determined as 80.0 ng/mL. The IC50 at HIV-1 protease (setting [5]) was 3240 nM; in data set [2] (read-out: Whole cell IC50 nM, CEM cells), 8.64 nM. Besides, the IC90 in data set [2] (read-out: Whole cell IC90 nM, CEM cells) was 66.5 nM.
On to `CC(C)(C)NC(=O)c1ccccc1CC(O)C(CSc1ccc2ccccc2c1)NC(=O)c1ccc(N)cc1Cl` (stereo not drawn) [Example 71, [2′R-(2′R*,3′S*)]-N-t-Butyl-2-[2′-hydroxy-3′-naphth-2-ylthiomethyl-4′-aza-5′-oxo-5′-(2″-chloro-4″-aminophenyl)pentyl] benzamide], for which the melting point was 102 to 104 °C. At HIV-1 protease (setting [4]), the IC50 is 312 nM.
The matching figures for `Cc1ccc([N+](=O)[O-])cc1C(=O)NC(CSc1ccc2ccccc2c1)C(O)Cc1ccccc1C(=O)NC(C)(C)C` (stereo not drawn) [Example 68, [2′R-(2′R*,3′S*)]-N-t-Butyl-2-[2′-hydroxy-3′-naphth-2-ylthiomethyl-4′-aza-5′-oxo-5′-(3″-nitro-6″-methylphenyl)pentyl] benzamide]: 85 to 88 °C and 17100 nM.
Take `Cc1cnccc1C(=O)NC(CSc1ccccc1)C(O)CN1CCN(Cc2cccnc2)CC1C(=O)NC(C)(C)C` (stereo not drawn) [Example 35, [2S-(2R*,2′S*,3′S*)]-1-[2′-Hydroxy-3′-phenylthiomethyl-4′-aza-5′-oxo-5′-(3″-methyl-pyrid-4″-yl)[pentyl]-4-(pyrid-3′″-ylmethyl)piperazine-2-N-t-butylcarboxamide]: the “SRI MT2 IC50” value in data set [1] is 519 ng/mL and 368 ng/mL. The “Fluorescence Assay IC50” value at HIV-1 protease (setting [6]) is given as 31.7 ng/mL. Besides, the “Pandex IC50 ng/ml” value at HIV-1 protease (setting [7]) was 73^c ng/ml.
For `CC(C)(C)NC(=O)c1ccccc1CC(O)C(CSc1ccc2ccccc2c1)NC(=O)c1cc(N)ccc1Cl` (stereo not drawn) [Example 55, [2′R-(2′R*,3′S*)]-N-t-Butyl-2-[2′-hydroxy-3′-naphth-2-ylthiomethyl-4′-aza-5′-oxo-5′-(2″-chloro-5″-aminophenyl)pentyl] benzamide], the melting point lay in the range of 109 to 110 °C. Also, the IC50 at HIV-1 protease (setting [4]) is 194 nM.
In the case of `CC(C)(C)NC(=O)C1CC2CCCCC2CN1CC(O)C(Cc1ccccc1)NC(=O)c1cccc(Cl)c1Cl` (stereo not drawn) [Example 14, [3S-(3R*,4aR*,8aR*,2′S*,3′R*)]-2-[2′-Hydroxy-3′-phenylmethyl-4′-aza-5′-oxo-5′-(2″,3″-dichloro-phenyl)pentyl] decahydroisoquinoline-3-N-t-butylcarboxamide], the “SRI MT2 IC50” value in data set [1] is 1610 ng/mL and 1290 ng/mL. Also, the “Fluorescence Assay IC50” value at HIV-1 protease (setting [6]) is 101 ng/mL. In addition, on HIV-1 protease (setting [7]), the “Pandex IC50 ng/ml” value was 48.7^d ng/ml.
With `CC(C)(C)NC(=O)[C@@H]1C[C@@H]2SCC[C@@H]2CN1C[C@@H](O)[C@H](CSc1ccccc1)NC(=O)C1CCS(=O)(=O)C1` (relative stereo) [Example 89, [6S-(6R*, 3aS*, 7aR*, 2′S*, 3′S*)]-2-[2′-Hydroxy-3′-phenylthiomethyl-4′-aza-5′-oxo-5′-(tetrahydrothieno-3″-yl-1″,1″-dioxide)pentyl]-octahydrothieno[3,2-c]pyridine-6-N-t-butyl carboxamide], in data set [3], the “CEM IC95” value is given as 98 nM. Moreover, the IC50 on HIV-1 protease (setting [5]) is 0.856 nM.
